According to patent publication US20090099029A1, “Methods and substrates for conducting assays” (Invitrogen Corporation, priority 2005, published 2009):

What was measured:
Test in all cases: Further analysis of a plurality of inhibitors and a plurality of kinases (Table 5 inhibition results)
Format in all cases: biochemical
Design in all cases: scale not given here
kinases of Table 5 [1] = target: T1, kinases of Table 5 (Homo sapiens, UniProt Q92630); settings: for Inhibition level: kinase DYRK2; for Inhibition Results (Level): kinase DYRK2 (Part II, plate D11, Domain 1)
T1 sequence (Q92630 1-601): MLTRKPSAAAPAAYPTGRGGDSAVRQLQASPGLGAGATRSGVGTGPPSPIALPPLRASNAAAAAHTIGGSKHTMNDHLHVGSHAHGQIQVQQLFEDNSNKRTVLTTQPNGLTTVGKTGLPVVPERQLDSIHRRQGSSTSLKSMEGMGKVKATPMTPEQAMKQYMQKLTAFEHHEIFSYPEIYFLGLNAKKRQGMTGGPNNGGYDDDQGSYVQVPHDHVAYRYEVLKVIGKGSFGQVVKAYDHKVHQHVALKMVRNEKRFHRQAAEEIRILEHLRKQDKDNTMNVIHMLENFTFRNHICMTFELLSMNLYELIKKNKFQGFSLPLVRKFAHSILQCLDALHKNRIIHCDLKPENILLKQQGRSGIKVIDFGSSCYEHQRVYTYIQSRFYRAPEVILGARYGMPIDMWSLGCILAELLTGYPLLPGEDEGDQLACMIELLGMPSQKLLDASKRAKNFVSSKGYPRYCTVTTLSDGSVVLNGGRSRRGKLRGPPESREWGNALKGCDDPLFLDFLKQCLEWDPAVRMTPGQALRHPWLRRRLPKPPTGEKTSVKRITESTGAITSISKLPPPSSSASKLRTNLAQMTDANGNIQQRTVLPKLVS
Description: (§1) The wash solution is then discarded.

kinases of Table 5 [2] = target: kinases of Table 5 (Homo sapiens, UniProt Q9UIK4); settings: for Inhibition level: kinase DAPK2; for Inhibition Results (Level): kinase DAPK2 (Part II, plate H3, Domain 1)
Description: as §1

kinases of Table 5 [3] = target: T2, kinases of Table 5 (Homo sapiens, UniProt Q9Y616); settings: kinase IRAK3 (Part I, plate C9, Domain 1); inhibitor 100 uM
T2 sequence (Q9Y616 1-596): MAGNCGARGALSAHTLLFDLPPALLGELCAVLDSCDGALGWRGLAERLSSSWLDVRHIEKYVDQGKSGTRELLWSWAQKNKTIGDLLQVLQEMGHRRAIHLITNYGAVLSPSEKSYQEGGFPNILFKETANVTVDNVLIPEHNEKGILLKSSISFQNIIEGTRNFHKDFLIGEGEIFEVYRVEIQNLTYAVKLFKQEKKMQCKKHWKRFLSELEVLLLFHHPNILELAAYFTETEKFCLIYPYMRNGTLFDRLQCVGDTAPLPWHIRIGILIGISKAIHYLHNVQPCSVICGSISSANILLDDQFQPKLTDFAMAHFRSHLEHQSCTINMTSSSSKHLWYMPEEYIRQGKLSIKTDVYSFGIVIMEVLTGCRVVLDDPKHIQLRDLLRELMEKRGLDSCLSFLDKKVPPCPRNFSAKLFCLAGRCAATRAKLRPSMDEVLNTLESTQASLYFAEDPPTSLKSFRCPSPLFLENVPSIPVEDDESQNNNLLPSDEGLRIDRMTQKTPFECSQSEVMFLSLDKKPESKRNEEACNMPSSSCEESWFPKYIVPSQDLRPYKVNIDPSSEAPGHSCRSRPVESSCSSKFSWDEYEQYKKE
Description: as §1

kinases of Table 5 [4] = target: T3, kinases of Table 5 (Homo sapiens, UniProt Q08881); settings: kinase ITK (Part I, plate E4, Domain 0); inhibitor 100 uM
T3 sequence (Q08881 1-620): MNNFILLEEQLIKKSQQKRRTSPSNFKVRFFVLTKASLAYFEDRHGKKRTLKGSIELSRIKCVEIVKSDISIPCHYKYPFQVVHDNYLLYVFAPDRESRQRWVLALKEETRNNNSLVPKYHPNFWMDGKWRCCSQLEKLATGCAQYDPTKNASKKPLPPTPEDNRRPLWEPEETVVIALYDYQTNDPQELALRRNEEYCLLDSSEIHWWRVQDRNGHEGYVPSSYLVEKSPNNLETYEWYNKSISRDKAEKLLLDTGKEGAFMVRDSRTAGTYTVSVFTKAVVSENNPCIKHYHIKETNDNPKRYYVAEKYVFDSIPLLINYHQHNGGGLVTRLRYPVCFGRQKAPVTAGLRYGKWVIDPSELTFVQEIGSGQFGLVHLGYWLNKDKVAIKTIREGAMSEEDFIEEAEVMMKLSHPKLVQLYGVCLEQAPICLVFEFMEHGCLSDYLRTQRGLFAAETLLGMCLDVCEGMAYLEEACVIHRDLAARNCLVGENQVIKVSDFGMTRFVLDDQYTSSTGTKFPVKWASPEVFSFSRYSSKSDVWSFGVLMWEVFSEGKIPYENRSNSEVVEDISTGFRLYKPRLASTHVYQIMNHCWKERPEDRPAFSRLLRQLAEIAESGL
Description: as §1

kinases of Table 5 [5] = target: T4, kinases of Table 5 (Homo sapiens, UniProt Q8IVH8); settings: kinase MAP4K3 (Part I, plate C5, Domain 1); inhibitor 100 uM
T4 sequence (Q8IVH8 1-894): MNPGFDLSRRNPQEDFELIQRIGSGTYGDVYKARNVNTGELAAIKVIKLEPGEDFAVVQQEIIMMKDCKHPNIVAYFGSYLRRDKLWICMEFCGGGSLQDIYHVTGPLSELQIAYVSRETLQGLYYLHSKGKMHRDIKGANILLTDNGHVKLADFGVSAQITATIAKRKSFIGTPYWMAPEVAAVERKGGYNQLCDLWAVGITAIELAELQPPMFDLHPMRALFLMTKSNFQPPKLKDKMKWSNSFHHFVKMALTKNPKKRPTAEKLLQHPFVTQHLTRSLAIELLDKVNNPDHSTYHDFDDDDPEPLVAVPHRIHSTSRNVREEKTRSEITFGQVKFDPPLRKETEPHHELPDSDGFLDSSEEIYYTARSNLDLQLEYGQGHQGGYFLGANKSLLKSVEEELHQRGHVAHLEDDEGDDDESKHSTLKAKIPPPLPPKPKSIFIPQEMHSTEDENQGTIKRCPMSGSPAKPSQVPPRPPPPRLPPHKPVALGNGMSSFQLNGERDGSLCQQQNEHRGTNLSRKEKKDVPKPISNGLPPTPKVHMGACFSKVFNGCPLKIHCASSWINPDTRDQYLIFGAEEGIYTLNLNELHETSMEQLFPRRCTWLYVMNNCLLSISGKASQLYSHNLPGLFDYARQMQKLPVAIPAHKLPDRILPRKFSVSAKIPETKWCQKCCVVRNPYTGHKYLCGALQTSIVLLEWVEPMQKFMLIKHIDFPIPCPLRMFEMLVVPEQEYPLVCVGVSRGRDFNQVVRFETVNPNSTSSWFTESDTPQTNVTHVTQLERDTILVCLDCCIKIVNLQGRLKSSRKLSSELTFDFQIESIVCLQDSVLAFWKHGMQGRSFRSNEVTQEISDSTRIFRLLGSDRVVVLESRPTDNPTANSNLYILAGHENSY
Description: as §1

Chain of kinases of Table 5 (Homo sapiens, UniProt Q9UIK4) (Q9UIK4 whole entry): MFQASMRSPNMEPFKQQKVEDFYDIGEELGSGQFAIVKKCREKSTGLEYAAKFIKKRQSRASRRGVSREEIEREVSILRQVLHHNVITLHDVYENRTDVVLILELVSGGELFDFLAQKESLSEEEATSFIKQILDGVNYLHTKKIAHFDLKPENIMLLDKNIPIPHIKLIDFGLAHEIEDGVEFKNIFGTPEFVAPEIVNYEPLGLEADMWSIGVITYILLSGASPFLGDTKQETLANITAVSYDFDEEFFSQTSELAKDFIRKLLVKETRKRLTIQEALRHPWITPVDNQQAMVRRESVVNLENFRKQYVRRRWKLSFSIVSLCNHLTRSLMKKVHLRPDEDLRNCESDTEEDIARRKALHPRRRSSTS

Row | Structure (SMILES) | Inhibition level (kinases of Table 5 [1]; inhibitor 100 uM) | Inhibition level (kinases of Table 5 [2]; inhibitor 100 uM) | Inhibition Results (Level) (kinases of Table 5 [3]) | Inhibition Results (Level) (kinases of Table 5 [4]) | Inhibition Results (Level) (kinases of Table 5 [5]) | Inhibition level (kinases of Table 5 [1]; concentration not given) | Inhibition level (kinases of Table 5 [2]; concentration not given) | Inhibition Results (Level) (kinases of Table 5 [1]; inhibitor 100 uM) | Inhibition Results (Level) (kinases of Table 5 [2]; inhibitor 100 uM)
1 | N#C/C(=C/c1ccc(O)c(O)c1)C(=O)NCc1ccccc1 [AG 490] | 2 | 2 | 0 | 1 | 1 |  |  |  | 
2 | COc1cc2ncnc(Nc3cccc(Cl)c3)c2cc1OC [AG 1478] | 2 | 0 | 2 | 1 | 2 |  |  |  | 
3 | O=c1c(-c2ccc(O)cc2)coc2cc(O)cc(O)c12 [Genistein] | 2 | 2 | 2 | 2 | 2 | 1 | 0 |  | 
4 | O=S(=O)(NCCNC/C=C/c1ccc(Br)cc1)c1cccc2cnccc12 [H-89] |  |  | 0 | 1 | 1 |  |  | 2 | 2
5 | CC(C)(C)n1nc(-c2ccc(Cl)cc2)c2c(N)ncnc21 [PP2] | 2 | 2 | 2 | 2 | 2 |  |  |  | 
6 | O=c1c(O)c(-c2ccc(O)c(O)c2)oc2cc(O)cc(O)c12 [Quercetin] |  |  | 0 | 0 | 1 |  |  | 2 | 0
7 | Cn1cc(C2=C(c3cn(CCCSC(=N)N)c4ccccc34)C(=O)NC2=O)c2ccccc21 [Ro-31-8220] | 2 | 2 | 2 | 2 | 2 | 0 | 2 |  | 
8 | CC(=O)c1c(O)c(C)c(O)c(Cc2c(O)c3c(c(C(=O)/C=C/c4ccccc4)c2O)OC(C)(C)C=C3)c1O [Rottlerin (Mallotoxin)] |  |  | 2 | 1 | 1 |  |  | 2 | 1
9 | CN[C@@H]1C[C@H]2O[C@@](C)([C@@H]1OC)n1c3ccccc3c3c4c(c5c6ccccc6n2c5c31)C(=O)NC4 [Staurosporine] |  |  |  |  |  |  | 2 |  | 
